Assay results taken from US12208093B2 (THE JOHNS HOPKINS UNIVERSITY, priority 2016, dated 2025).
Entries after “also recorded” stand apart in the source; their conditions may differ. Where a name gives a salt, the structure may show the parent alone.

Key:
[1] = tested on: MDM2-p53; test: Co-immunoprecipitation of MDM2 and p53; MDM2 and p53 expression; assay type: cell-based, human; settings: contact-inhibited infected cells
Excerpt: (§1) SDS-polyacrylamide gel electrophoresis and immunoblot analysis. Cell lysates were quantified for protein content using bicinchoninic acid (BCA) protein assay kit (Pierce Chemical, Rockford, IL). Equivalent amount of proteins were used for Western blot analysis as described previously. Protein bands were visualized by chemiluminescence using Western Blotting Luminol Reagent (Santa Cruz Biotechnology, Santa Cruz, CA). The following antibodies were used for detection of HCMV proteins: mouse anti-IE1 and IE2, (MAb810); mouse anti-UL44 (Santa Cruz biotechnology Santa Cruz, CA); mouse monoclonal anti-pp65 (Vector laboratories, Burlingame, CA); mouse monoclonal anti-β-actin antibody (Millipore, Billerica, MA); rabbit polyclonal anti-RPS14 and mouse monoclonal anti-MDM2 (AbCam, Cambridge, UK), mouse monoclonal anti-p53 (Santa Cruz, CA); horseradish peroxidase (HRP)-conjugated goat anti-rabbit IgG (Cell Signaling); and HRP-conjugated sheep anti-mouse IgG, (GE Healthcare, Waukesha, WI). For detection of co-immunoprecipitated proteins, protein A-HRP conjugate (Cell Signaling Technologies, Beverly, MA) was used as secondary antibody to eliminate the interfering IgG bands.
Co-immunoprecipitation (IP) and immunoblotting. Non-infected, infected or emetine-treated HFFs were treated with MG132 (10 μM) for 12 h. […] 1 mg of lysate was precleared with bead slurry for 30 min. The precleared lysates were incubated with anti-MDM2 (2 μg) antibody overnight. The antibody complexes were isolated using protein A/G beads (Santa Cruz), washed three times with 50% IP buffer. The immunoprecipitate—protein A/G beads were boiled in SDS sample buffer, and the supernatant was analyzed on SDS-PAGE gels after immunoblotting as described previously. […] Reverse IPs were performed by pulling down the precleared lysates with either anti-p53 antibody or anti-RPS14 antibody and detected with MDM2. […] In other experiments, transfected or treated HEK293 cell lysates were pulled-down with anti-IE2 antibody and detected with anti-MDM2 antibody and vice-versa for reverse IP.

[2] = tested on: pp28-luciferase HCMV Towne; test: Add on and removal studies; assay type: cell-based, human cytomegalovirus (HCMV); settings: luciferase at 72 hpi
Protocol: Add on and removal studies. […] For time-of-removal studies, the medium containing the compounds was removed at 0, 6, 12, 24, 36 and 48 hpi, cells were washed three times with phosphate-buffered saline (PBS), and drug-free medium was added. Luciferase activity was determined at 72 hpi.

[3] = tested on: pp28-luciferase HCMV Towne; test: microbe, parasite or virus in culture; assay type: cell-based, human cytomegalovirus (HCMV)
Excerpt: A GCV-resistant pp28-luciferase HCMV strain, with a C607Y mutation in UL97 was also used. The recombinant viruses express luciferase under the control of the late CMV gene promoter, pp28. […] The recombinant viruses provide a highly-sensitive and reproducible reporter system which correlates with the classic plaque reduction assay. […] Human herpes virus strains were: luciferase HSV1-KOS/Dlux/oriS and clinical isolates of HSV2.
Cell culture, virus infection and anti-viral assays. […] Infection with HCMV or HSV was performed in HFFs, and infection with mouse CMV was performed in MEFs. For HCMV, cells were seeded in either a 96-well plate or 100 mm culture plates (Corning Costar, Sigma Aldrich) at 0.5 or 2 million cells/plate. Following 90 minute adsorption, media was removed and cells were washed with PBS. Media containing 4% FBS and compounds were added to each well. Infected treated HFFs were collected at 72 hpi and lysates were assayed for luciferase activity using a luciferase assay kit (Promega, Madison, WI) on GloMax®-Multi+Detection System (Promega). In second cycle assays, supernatants were collected from all conditions of the first cycle at 96 hpi and used for infection of fresh HFFs in 96-well-plates. […] For HSV1-KOS/Dlux/oriS, a luciferase assay was performed at 24 hpi. Plaque assays were performed with clinical isolates of HSV2 and HCMV Towne. […] Following virus adsorption (60 min and 90 min for HSV and HCMV, respectively), virus was aspirated, and DMEM containing 4% fetal bovine serum (FBS) with (for HSV) or without (for HCMV) 0.5% carboxymethyl-cellulose, were added with the compounds at indicated concentrations into triplicate wells. After incubation at 37° C. for 10 days (for HCMV) or 2 days (for HSV), the overlay was removed and plaques were counted after crystal violet staining.

[4] = tested on: pp28-luciferase HCMV Towne; test: Drug combination emetine + GCV, Bliss model; assay type: cell-based, human cytomegalovirus (HCMV); settings: combined with ganciclovir (GCV), dihydrochloride hydrate
Protocol: Drug combination. The combined inhibitory effect of compounds on HCMV replication was determined in infected HFFs. A dose response curve was first generated for each compound; the EC50 and slope were calculated. […] The Bliss model was used for quantification of the effect of two compounds on HCMV replication (40). In this model, drug combination represents the product of two probabilistically independent events as described in the following equation (41): […]
The combined effect of two inhibitors (FU, fractional unaffected) is computed as the product of individual effects of the two inhibitors, FU1 and FU2. If the ratio of observed fold inhibition divided by the expected fold inhibition is greater than 1, the compounds are synergistic. If the ratio is less than 1, the combination is considered antagonistic, and if it equals to 1 the combination is additive.

[5] = tested on: HSV-2 (clinical isolates); test: HSV-2 plaque assay in HFFs; assay type: cell-based, herpes simplex virus 2; settings: nM concentrations
Excerpt: (§2) Cell culture, virus infection and anti-viral assays.

[6] = tested on: p21 mRNA; test: qRT-PCR for p21 in infected HFFs; assay type: cell-based, human; settings: contact-inhibited cells, emetine 75 nM, p<0.01
Excerpt: RNA isolation and real time quantitative reverse transcriptase (qRT) PCR. Total RNA was isolated from cultured cells using RNeasy Mini kit (Qiagen, Georgetown, MD) according to manufacturer's instructions. RevertAid first strand cDNA synthesis kit (Fermentas life sciences, Cromwell Park, MD) was used to synthesize first strand cDNA from total RNA using oligo-dT primers. Negative reverse-transcriptase (−RT) reactions were included to ensure the specificity of qRT-PCR reactions. Synthesis of first strand cDNA from mRNA template was carried out at 42° C. for 1 h. Quantitative RT-PCR (qRT-PCR) was performed using specific primers for p21 (F: 5′ […] 3′ (SEQ ID NO:3); R: 5′ […] 3′) (SEQ ID NO:4) and SYBR green (Fermentas life science) with two-step cycling protocol (95° C. for 15 s, 60° C. for 1 min). Reactions were performed in triplicates and GAPDH (F: 5′ […] 3′ (SEQ ID NO:5); R: 5′ […] 3′ (SEQ ID NO:6)) was used as the internal control.

[7] = tested on: HCMV proteins IE1/2, UL44 and pp65; test: Western blot of HCMV protein expression; assay type: cell-based, human cytomegalovirus (HCMV); settings: 72 hpi
Excerpt: as §1

[8] = tested on: GCV-resistant pp28-luciferase HCMV (C607Y mutation in UL97); settings: nM concentrations
Protocol: Viruses. The pp28-luciferase HCMV Towne strain was constructed as previously described. A GCV-resistant pp28-luciferase HCMV strain, with a C607Y mutation in UL97 was also used. The recombinant viruses express luciferase under the control of the late CMV gene promoter, pp28. Luciferase expression is strongly activated 48-72 hours post infection (hpi). The recombinant viruses provide a highly-sensitive and reproducible reporter system which correlates with the classic plaque reduction assay.
Cell culture, virus infection and anti-viral assays. Human Foreskin Fibroblasts (HFFs) passage 12-16 (ATCC, CRL-2088™) and mouse embryonic fibroblasts (MEFs) passage 9-14 (ATCC, CRL-1658™) were grown in Dulbecco's Modified Eagle Medium (DMEM) containing 10% fetal bovine serum (FBS) (Gibco, Carlsbad, CA) in a 5% CO2 incubator at 37° C. Infection with HCMV or HSV was performed in HFFs, and infection with mouse CMV was performed in MEFs. For HCMV, cells were seeded in either a 96-well plate or 100 mm culture plates (Corning Costar, Sigma Aldrich) at 0.5 or 2 million cells/plate. Following 90 minute adsorption, media was removed and cells were washed with PBS. Media containing 4% FBS and compounds were added to each well. […] Luciferase activity was measured 72 h following second cycle infection.

[9] = tested on: MCMV; test: MCMV infection model in BALB/c mice; assay type: in vivo, Murid Herpesvirus (MCMV) in BALB/c mice
Protocol: Control mice received 0.1 ml of saline intraperitoneally. […] Control and infected mice received equivalent volumes of saline. […] Mice were sacrificed at day 14 after infection. Blood samples were collected by cardiac puncture. […] Two million MEFs were seeded into 24 well plates. […] Plaques were counted after three days. […] The gB primers were: F: 5′ […] 3′ (SEQ ID NO:1); R: 5′ […] 3′(SEQ ID NO:2) (43).

[10] = tested on: pp28-luciferase HCMV Towne; test: Second cycle luciferase assay; assay type: cell-based, human cytomegalovirus (HCMV); settings: emetine 75 nM, vs infected control
Excerpt: as §2

SMILES: CC[C@H]1CN2CCc3cc(OC)c(OC)cc3[C@@H]2C[C@@H]1C[C@H]1NCCc2cc(OC)c(OC)cc21 [emetine, emetine dihydrochloride hydrate]
- MDM2 expression ([1]; 72 hpi): increased
- p53 expression ([1]; 72 hpi): increased
- HCMV-induced interaction between MDM2 and p53 ([1]; not cycling cells, MG132): disrupted
- time of addition after which activity against HCMV replication is lost ([2]; add-on): > 12 h
- time compound is required to fully inhibit HCMV ([2]; removal assay): at least 24 h
- HCMV inhibition in relation to cell density at time of infection ([3]; HFFs 0.5-2 million cells/plate, emetine 75 nM, GCV 5 μM): significant virus inhibition was observed only at higher cell density
- EC50 ([3]; Human betaherpesvirus 5, read-out: EC50 against HCMV): 40 nM
- reduction in normalized luciferase activity at low cell density ([3]; emetine 75 nM, 0.5 million cells/plate in 96-well plate): no significant reduction
- concentration that fully inhibits HCMV ([3]; luciferase at 72 hpi): 75 nM
- combined effect of emetine and GCV on virus inhibition [4]: synergistic virus inhibition
- inhibition of HSV-2 [5]: inhibited
- tolerability in mice: well-tolerated
- increase in p21 mRNA ([6]; 24 hpi): 5.4 fold
- increase in p21 mRNA ([6]; 72 hpi): 6.7 fold
- expression of HCMV proteins IE1/2, UL44 and pp65 [7]: significantly reduced
- viral UL44 and pp65 expression at high cell density ([7]; emetine 75 nM, vs infected untreated cells, not at lower cell density): significant reduction
- inhibition of GCV-resistant HCMV [8]: inhibited
- MCMV inhibition in mice ([9]; oral every 72 h / three days, low dose 0.1 mg/kg, dihydrochloride hydrate, 0.1 mg/kg): inhibited; also recorded: high efficacy; also recorded: inhibits mouse CMV replication; also recorded: effectively suppressed MCMV
- difference in efficacy between 0.1 and 1 mg/kg ([9]; oral, every three days): no significant difference
- increase in pp28-luciferase activity, second cycle infection ([10]; 0.5 million cells/plate, p>0.5): 1.5 fold
- reduction in pp28-luciferase activity, second cycle infection ([10]; 1 million cells/plate, p<0.001): 1.5 fold
- pp28-luciferase activity, second cycle infection ([10]; 2 million cells/plate, p<0.001): almost complete inhibition
